# Biological target: CXCR7 (Homo sapiens (Human), UniProt P25106)
# Test: PathHunter CHO-K1 CXCR7 b-arrestin assay (agonistic activity)
# Format: cell-based
# Settings: PathHunter CHO-K1 CXCR7 b-arrestin cell line
# Description: The CXCl12 receptor and CXCR7 agonistic activities of the compounds of formula (I) are determined in accordance with the following experimental method.
# The assay is using the PathHunter™ CHO-K1 CXCR7 b-arrestin cell line from DiscoverX. The system is based on the Enzyme Fragment Complementation Technology. Two complementing fragments of the b-galactosidase enzyme are expressed within stably transfected cells. The larger portion of b-gal, termed EA for Enzyme Acceptor, is fused to the C-terminus of b-arrestin 2. The smaller fragment, termed ProLink™ tag, is fused to CXCR7 at the C-terminus. Upon activation, b-arrestin is recruited which forces the interaction of ProLink and EA, allowing complementation of the two fragments of b-gal and the formation of a functional enzyme which is capable of hydrolysing the substrate and generating a chemiluminescent signal.
# CHO-K1 CXCR7 b-arrestin cells are detached from culture dishes with a cell dissociation buffer (Invitrogen, #13151-014) and collected in growing medium (F12 HAMS 90% (v/v)/FCS 10% (v/v), Penicilin/streptomycin 1% (v/v)). 5000 cells per well (in 20 μl) are seeded in a 384 well plate (white-walled, clear bottom; BD Falcon #353274). The plate is incubated at 37° C./5% CO2 for 24 hours. Medium is then replaced by 20 μl OPTIMEM (Invitrogen #31985) for 3 to 4 hours. Test compounds are dissolved at 10 mM in DMSO and serially diluted in DMSO to 200× of the final concentration for dose response curves. Compounds are then diluted 1:33.3 in HBSS1×. 5 μl/well of HBSS1×/20 mM HEPES/0.2% BSA are added to the assay plate followed by addition of 5 μl/well of diluted compounds. CXCL12 (Peprotech #300-28A) may be used as a reference agonist. The plate is incubated for 90 minutes at 37° C. 12 μl of detection reagent (Path Hunter Detection Kit, DiscoveRx, #93-0001) is transferred to the assay plate and to the plate is incubated for 1 hour at room temperature. Luminescent signal is read in a microplate reader (FLUOstar Optima, bmg). The calculated EC50 values may fluctuate depending on the daily cellular assay performance. Fluctuations of this kind are known to those skilled in the art. Average EC50 values from several measurements are given as geometric mean values.
# Chain of CXCR7 (P25106 whole entry): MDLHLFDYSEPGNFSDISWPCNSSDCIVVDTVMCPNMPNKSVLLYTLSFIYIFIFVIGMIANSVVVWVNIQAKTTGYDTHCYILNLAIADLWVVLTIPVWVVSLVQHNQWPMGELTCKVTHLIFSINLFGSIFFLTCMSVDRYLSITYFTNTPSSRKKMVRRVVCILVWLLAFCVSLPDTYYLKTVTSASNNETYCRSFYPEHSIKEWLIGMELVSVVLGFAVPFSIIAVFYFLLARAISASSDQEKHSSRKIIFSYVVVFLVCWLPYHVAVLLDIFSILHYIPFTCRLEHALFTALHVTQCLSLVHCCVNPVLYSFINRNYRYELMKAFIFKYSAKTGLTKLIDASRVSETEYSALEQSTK
# Chain of CXCR7 (P32121 whole entry partner): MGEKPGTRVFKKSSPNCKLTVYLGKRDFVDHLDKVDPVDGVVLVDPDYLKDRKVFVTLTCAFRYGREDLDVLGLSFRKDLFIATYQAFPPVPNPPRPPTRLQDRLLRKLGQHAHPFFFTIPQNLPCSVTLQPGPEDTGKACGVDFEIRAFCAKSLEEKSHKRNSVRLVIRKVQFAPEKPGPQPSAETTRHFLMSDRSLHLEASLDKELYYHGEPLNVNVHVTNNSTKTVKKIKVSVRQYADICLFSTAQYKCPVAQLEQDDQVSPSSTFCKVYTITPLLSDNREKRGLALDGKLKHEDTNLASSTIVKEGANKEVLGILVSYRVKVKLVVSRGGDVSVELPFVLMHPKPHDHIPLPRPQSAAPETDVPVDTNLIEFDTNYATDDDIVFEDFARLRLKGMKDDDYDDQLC
row,Compound,EC50
1,1-[3-(4-Chloro-benzoylamino)-benzyl]-piperidine-4-carboxylic acid (1-cyano-cyclopropyl)-amide [Example 2.036],15 nM
2,1-[3-(4-Chloro-benzoylamino)-benzyl]-piperidine-4-carboxylic acid (tetrahydro-pyran-4-yl)-amide [Example 2.013],13 nM
3,6-Trifluoromethyl-pyridine-2-carboxylic acid [3-(4-pentylcarbamoyl-piperidin-1-ylmethyl)-phenyl]-amide [Example 2.080],15 nM
4,O=C(NC1CCCCC1)C1CCN(Cc2cccc(NC(=O)C3CC3c3ccccc3)c2)CC1 (racemic) [Example 1.029],5 nM
5,CC(C)C(C(=O)Nc1cccc(CN2CCC(C(=O)NC3CCCCC3)CC2)c1)c1ccccc1 (racemic) [Example 1.036],35 nM
6,CC(C(=O)Nc1cccc(CN2CCC(C(=O)NC(C)(C)C)CC2)c1)c1ccccc1 (racemic) [Example 1.079],3 nM
7,CC(c1cccc(NC(=O)c2ccc(Cl)cn2)c1)N1CCC(C(=O)NC2CCCCC2)CC1 (racemic) [Example 1.168],2 nM
8,CC(c1cccc(NC(=O)c2ccccn2)c1)N1CCC(C(=O)NC2CCCCC2)CC1 (racemic) [Example 1.169],12 nM
9,CC(c1cccc(NC(=O)c2cnccn2)c1)N1CCC(C(=O)NC2CCCCC2)CC1 (racemic) [Example 1.170],18 nM
10,CC(c1cccc(NC(=O)c2cccnc2)c1)N1CCC(C(=O)NC2CCCCC2)CC1 (racemic) [Example 1.171],150 nM
11,Cc1cncc(C(=O)Nc2cccc(C(C)N3CCC(C(=O)NC4CCCCC4)CC3)c2)c1 (racemic) [Example 1.172],28 nM
12,CC(c1cccc(NC(=O)Cc2cccc(C(F)(F)F)c2)c1)N1CCC(C(=O)NC2CCCCC2)CC1 (racemic) [Example 1.173],26 nM
13,CC(c1cccc(NC(=O)c2ccncc2Cl)c1)N1CCC(C(=O)NC2CCCCC2)CC1 (racemic) [Example 1.174],559 nM
14,COc1ccc(OCC(=O)Nc2cccc(C(C)N3CCC(C(=O)NC4CCCCC4)CC3)c2)cc1 (racemic) [Example 1.175],181 nM
15,CC(c1cccc(NC(=O)c2ccncc2)c1)N1CCC(C(=O)NC2CCCCC2)CC1 (racemic) [Example 1.176],173 nM
16,CC(c1cccc(NC(=O)c2ccc(C(F)(F)F)cc2)c1)N1CCC(C(=O)NC2CCCCC2)CC1 (racemic) [Example 1.177],37 nM
17,CC(c1cccc(NC(=O)c2ccc(C#N)cc2)c1)N1CCC(C(=O)NC2CCCCC2)CC1 (racemic) [Example 1.178],64 nM
18,CC(c1cccc(NC(=O)c2cccc(C#N)c2)c1)N1CCC(C(=O)NC2CCCCC2)CC1 (racemic) [Example 1.179],78 nM
19,CC(c1cccc(NC(=O)c2cc(Cl)ccn2)c1)N1CCC(C(=O)NC2CCCCC2)CC1 (racemic) [Example 1.180],51 nM
20,Cc1ccc(C(=O)Nc2cccc(C(C)N3CCC(C(=O)NC4CCCCC4)CC3)c2)cn1 (racemic) [Example 1.181],148 nM
21,Cc1cccc(C(=O)Nc2cccc(C(C)N3CCC(C(=O)NC4CCCCC4)CC3)c2)n1 (racemic) [Example 1.182],7 nM
22,CC(c1cccc(NC(=O)c2ccc(C(F)(F)F)nc2)c1)N1CCC(C(=O)NC2CCCCC2)CC1 (racemic) [Example 1.183],98 nM
23,Cc1cc(C(=O)Nc2cccc(C(C)N3CCC(C(=O)NC4CCCCC4)CC3)c2)ccn1 (racemic) [Example 1.184],33 nM
24,Cc1cnc(C(=O)Nc2cccc(C(C)N3CCC(C(=O)NC4CCCCC4)CC3)c2)cn1 (racemic) [Example 1.185],15 nM
25,Cc1cc(C(=O)Nc2cccc(C(C)N3CCC(C(=O)NC4CCCCC4)CC3)c2)c2cnn(C(C)C)c2n1 (racemic) [Example 1.186],86 nM
26,CC(c1cccc(NC(=O)c2cccc(C(F)(F)F)n2)c1)N1CCC(C(=O)NC2CCCCC2)CC1 (racemic) [Example 1.187],7 nM
27,CC(c1cccc(NC(=O)c2ccc(N3CCCC3)cn2)c1)N1CCC(C(=O)NC2CCCCC2)CC1 (racemic) [Example 1.188],215 nM

row,Compound,EC50
1,CC(C)Cc1cc(C(=O)Nc2cccc(C(C)N3CCC(C(=O)NC4CCCCC4)CC3)c2)n(C)n1 (racemic) [Example 1.189],15 nM
2,CC(c1cccc(NC(=O)c2cnc3[nH]ccc3c2)c1)N1CCC(C(=O)NC2CCCCC2)CC1 (racemic) [Example 1.190],134 nM
3,Cc1ccnc(C(=O)Nc2cccc(C(C)N3CCC(C(=O)NC4CCCCC4)CC3)c2)c1 (racemic) [Example 1.191],64 nM
4,Cc1cc(C)nc(C(=O)Nc2cccc(C(C)N3CCC(C(=O)NC4CCCCC4)CC3)c2)c1 (racemic) [Example 1.192],102 nM
5,CC(c1cccc(NC(=O)c2ccncn2)c1)N1CCC(C(=O)NC2CCCCC2)CC1 (racemic) [Example 1.193],23 nM
6,CC(c1cccc(NC(=O)c2cnc(N3CCCC3)s2)c1)N1CCC(C(=O)NC2CCCCC2)CC1 (racemic) [Example 1.194],303 nM
7,CC(c1cccc(NC(=O)c2ncccn2)c1)N1CCC(C(=O)NC2CCCCC2)CC1 (racemic) [Example 1.195],176 nM
8,CCN(CC)c1ccc(C(=O)Nc2cccc(C(C)N3CCC(C(=O)NC4CCCCC4)CC3)c2)cn1 (racemic) [Example 1.196],491 nM
9,Cc1cc(C(=O)Nc2cccc(C(C)N3CCC(C(=O)NC4CCCCC4)CC3)c2)ncn1 (racemic) [Example 1.198],92 nM
10,CC(C)(C)NC(=O)C1CCN(Cc2cccc(NC(=O)C3CCOC3)c2)CC1 (racemic) [Example 1.256],222 nM
11,CC(C)(C)NC(=O)C1CCN(Cc2cccc(NC(=O)C3CC3(C)C)c2)CC1 (racemic) [Example 1.257],7 nM
12,CC(C)(C)NC(=O)C1CCN(Cc2cccc(NC(=O)C3CNc4ccccc43)c2)CC1 (racemic) [Example 1.265],15 nM
13,CC(C)(C)NC(=O)C1CCN(Cc2cccc(NC(=O)C3COc4ccccc43)c2)CC1 (racemic) [Example 1.266],6 nM
14,CC(C)(C)NC(=O)C1CCN(Cc2cccc(NC(=O)C3CCc4ccccc43)c2)CC1 (racemic) [Example 1.267],2 nM
15,CC(C)(C)NC(=O)C1CCN(Cc2cccc(NC(=O)C(O)c3ccccc3Cl)c2)CC1 (racemic) [Example 1.270],6 nM
16,CC(C)(C)NC(=O)C1CCN(Cc2cccc(NC(=O)C3Cc4ccccc43)c2)CC1 (racemic) [Example 1.271],1 nM
17,CCNC(=O)C1CCCN(Cc2cccc(NC(=O)c3cncc(C)c3)c2)CC1 (racemic) [Example 1.287],181 nM
18,CCC(C)NC(=O)C1CCCN(Cc2cccc(NC(=O)c3cncc(C)c3)c2)CC1 (racemic) [Example 1.288],33 nM
19,Cc1cncc(C(=O)Nc2cccc(CN3CCCC(C(=O)NC(C)C)CC3)c2)c1 (racemic) [Example 1.289],113 nM
20,Cc1cncc(C(=O)Nc2cccc(CN3CCCC(C(=O)NC(C)(C)C)CC3)c2)c1 (racemic) [Example 1.290],49 nM
21,Cc1cncc(C(=O)Nc2cccc(CN3CCCC(C(=O)NC4CCCCC4)CC3)c2)c1 (racemic) [Example 1.291],134 nM
22,CCC(c1cccc(NC(=O)c2cncc(C)c2)c1)N1CCC(C(=O)NC2CCCCC2)CC1 (racemic) [Example 1.307],350 nM
23,CCC(c1cccc(NC(=O)c2cccc(C(F)(F)F)n2)c1)N1CCC(C(=O)NC2CCCCC2)CC1 (racemic) [Example 1.308],87 nM
24,"Cc1cncc(C(=O)Nc2cccc(CN3CCC(C(=O)NC(C)(C)C)C3)c2)c1 (racemic) [Example 2.096, rac-N-[3-(3-tert-Butylcarbamoyl-pyrrolidin-1-ylmethyl)-phenyl]-5-methyl-nicotinamide]",28 nM
25,"CC(C)(C)NC(=O)C1CCN(Cc2cccc(NC(=O)Cc3ccc(F)cc3Cl)c2)C1 (racemic) [Example 2.097, rac-1-{3-[2-(2-Chloro-4-fluoro-phenyl)-acetylamino]-benzyl}-pyrrolidine-3-carboxylic acid tert-butylamide]",37 nM
26,"CC(C)CNC(=O)C1CCN(Cc2cccc(NC(=O)c3cccc(C(F)(F)F)n3)c2)C1 (racemic) [Example 2.098, rac-6-Trifluoromethyl-pyridine-2-carboxylic acid [3-(3-isobutylcarbamoyl-pyrrolidin-1-ylmethyl)-phenyl]-amide]",193 nM
